Test results from PubChem BioAssay AID330 (DTP/NCI, 2004).
Several values for one entry are separate records, joined by “and”; a condition that tells them apart may be missing. Identical values can stand only once. Toxic doses and inconclusive results are not listed.

System: P388 leukemia ip, CD2F1 mice, survival T/C
Assay: NCI In Vivo Anticancer Drug Screen. Data for tumor model P388 Leukemia (intraperitoneal) in CD2F1 (CDF1) mice
Conditions: endpoint: median survival time, higher = longer survival
Method in brief: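 Mice carrying the transplanted tumor received test compound or vehicle. Survival was recorded in each group, and the value is the treated-group measurement divided by that of the vehicle-treated control group.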

[1] = dose: 50.0 mg/kg/injection, schedule: Q01DX009 (ip), vehicle: Klucel (hydroxypropylcellulose) (HPC)
[2] = dose: 100.0 mg/kg/injection, schedule: Q01DX009 (ip), vehicle: Klucel (hydroxypropylcellulose) (HPC)
[3] = dose: 200.0 mg/kg/injection, schedule: Q01DX009 (ip), vehicle: Klucel (hydroxypropylcellulose) (HPC)
[4] = dose: 12.5 mg/kg/injection, schedule: Q01DX009 (ip), vehicle: saline with Tween-80
[5] = dose: 25.0 mg/kg/injection, schedule: Q01DX009 (ip), vehicle: saline with Tween-80
[6] = dose: 50.0 mg/kg/injection, schedule: Q01DX009 (ip), vehicle: saline with Tween-80
[7] = dose: 100.0 mg/kg/injection, schedule: Q01DX009 (ip), vehicle: saline with Tween-80
[8] = dose: 200.0 mg/kg/injection, schedule: Q01DX009 (ip), vehicle: saline with Tween-80

SMILES: CNC1CCCCC1[N+](C)(C)C (stereo not drawn)
- T/C (dose: 5.0 mg/kg/injection, schedule: Q01DX009 (ip), vehicle: saline sonified): 95 % of control
- T/C (dose: 10.0 mg/kg/injection, schedule: Q01DX009 (ip), vehicle: saline sonified): 100 % of control
- T/C (dose: 20.0 mg/kg/injection, schedule: Q01DX009 (ip), vehicle: saline sonified): 100 % of control

SMILES: CCOC(=O)C(Cc1ccc(N(CCCl)CCCl)cc1)NC(=O)C(CC(C)C)NC(C)=O (stereo not drawn)
- T/C (dose: 3.12 mg/kg/injection, schedule: Q01DX009 (ip), vehicle: Klucel (hydroxypropylcellulose) (HPC)): 162 % of control
- T/C (dose: 5.0 mg/kg/injection, schedule: Q04DX003 (ip), vehicle: water): 105 % of control
- T/C (dose: 6.25 mg/kg/injection, schedule: Q01DX009 (ip), vehicle: Klucel (hydroxypropylcellulose) (HPC)): 172 % of control
- T/C (dose: 10.0 mg/kg/injection, schedule: Q04DX003 (ip), vehicle: water): 107 % of control
- T/C (dose: 12.5 mg/kg/injection, schedule: Q01DX009 (ip), vehicle: Klucel (hydroxypropylcellulose) (HPC)): 241 % of control and 254 % of control
- T/C (dose: 20.0 mg/kg/injection, schedule: Q04DX003 (ip), vehicle: water): 108 % of control
- T/C (dose: 25.0 mg/kg/injection, schedule: Q01DX009 (ip), vehicle: Klucel (hydroxypropylcellulose) (HPC)): 119 % of control
- T/C (dose: 40.0 mg/kg/injection, schedule: Q04DX003 (ip), vehicle: other): 122 % of control
- T/C (dose: 40.0 mg/kg/injection, schedule: Q04DX003 (ip), vehicle: water): 109 % of control
- T/C [1]: 104 % of control and 97 % of control
- T/C (dose: 80.0 mg/kg/injection, schedule: Q04DX003 (ip), vehicle: other): 116 % of control

SMILES: O=S1(=O)CC(c2ccccc2)=NN=C(c2ccccc2)C1
- T/C [1]: 93 % of control
- T/C [2]: 93 % of control
- T/C [3]: 88 % of control

SMILES: O=C(N/N=C/c1cc(Br)cc(Br)c1[O-])c1ccccc1.O=C(N/N=C/c1cc(Br)cc(Br)c1[O-])c1ccccc1.[Ni+2]
- T/C (dose: 100.0 mg/kg/injection, schedule: Q01DX001 (ip), vehicle: saline with Tween-80): 90 % of control
- T/C (dose: 200.0 mg/kg/injection, schedule: Q01DX001 (ip), vehicle: saline with Tween-80): 90 % of control
- T/C (dose: 400.0 mg/kg/injection, schedule: Q01DX001 (ip), vehicle: saline with Tween-80): 94 % of control

SMILES: CSc1ncc2c(=O)c3c(ccc4ccccc43)oc2n1
- T/C (dose: 3.12 mg/kg/injection, schedule: Q01DX009 (ip), vehicle: saline with Tween-80): 93 % of control
- T/C (dose: 6.25 mg/kg/injection, schedule: Q01DX009 (ip), vehicle: saline with Tween-80): 102 % of control
- T/C [4]: 96 % of control

SMILES: COc1cccc2c1C(=O)c1c(OC)c3c(c(OC)c1C2=O)C[C@@](O)(C(C)=O)C[C@@H]3OC1CC(N)C(O)C(C)O1 (stereo partly drawn)
- T/C (dose: 0.5 mg/kg/injection, schedule: Q01DX009 (ip), vehicle: water): 103 % of control
- T/C (dose: 1.0 mg/kg/injection, schedule: Q01DX009 (ip), vehicle: water): 110 % of control
- T/C (dose: 2.0 mg/kg/injection, schedule: Q01DX009 (ip), vehicle: water): 102 % of control
- T/C (dose: 4.0 mg/kg/injection, schedule: Q01DX009 (ip), vehicle: water): 106 % of control
- T/C (dose: 8.0 mg/kg/injection, schedule: Q01DX009 (ip), vehicle: water): 114 % of control and 119 % of control
- T/C (dose: 16.0 mg/kg/injection, schedule: Q01DX009 (ip), vehicle: water): 111 % of control and 123 % of control
- T/C (dose: 128.0 mg/kg/injection, schedule: Q01DX009 (ip), vehicle: water): 169 % of control

SMILES: Cc1sc(C)c(CCl)c1CCl
- T/C [4]: 113 % of control
- T/C [5]: 118 % of control
- T/C (dose: 37.5 mg/kg/injection, schedule: Q01DX009 (ip), vehicle: saline with Tween-80): 122 % of control
- T/C [6]: 118 % of control

SMILES: CN1C(=O)C/C(=N/Nc2ccccc2)NC1=O
- T/C [6]: 95 % of control
- T/C [7]: 100 % of control
- T/C [8]: 92 % of control

SMILES: C1CSC(CCC2SCCCS2)SC1
- T/C [6]: 92 % of control
- T/C [7]: 90 % of control
- T/C [8]: 87 % of control

SMILES: CCC(C)C1C(=O)O[B-](F)(F)/[N+]1=C\c1ccccc1 (stereo not drawn)
- T/C (dose: 100.0 mg/kg/injection, schedule: Q04DX003 (ip), vehicle: Klucel (hydroxypropylcellulose) (HPC)): 104 % of control
- T/C (dose: 200.0 mg/kg/injection, schedule: Q04DX003 (ip), vehicle: Klucel (hydroxypropylcellulose) (HPC)): 109 % of control

SMILES: CSCC1(C)OC(c2ccccc2)=Nc2ccccc21 (stereo not drawn)
- T/C (dose: 100.0 mg/kg/injection, schedule: Q04DX002 (ip), vehicle: saline with Tween-80): 97 % of control
- T/C (dose: 200.0 mg/kg/injection, schedule: Q04DX002 (ip), vehicle: saline with Tween-80): 98 % of control
- T/C (dose: 400.0 mg/kg/injection, schedule: Q04DX002 (ip), vehicle: saline with Tween-80): 106 % of control

SMILES: C1=C(CC2=C[P+](c3ccccc3)(c3ccccc3)C=C(c3ccccc3)O2)OC(c2ccccc2)=C[P+]1(c1ccccc1)c1ccccc1
- T/C (dose: 0.75 mg/kg/injection, schedule: Q01DX005 (ip), vehicle: saline with Tween-80): 115 % of control
- T/C (dose: 3.0 mg/kg/injection, schedule: Q01DX005 (ip), vehicle: saline): 124 % of control

SMILES: CSCCCNCc1ccc([N+](=O)[O-])cc1
- T/C (dose: 50.0 mg/kg/injection, schedule: Q01DX005 (ip), vehicle: saline): 97 % of control
- T/C (dose: 100.0 mg/kg/injection, schedule: Q01DX005 (ip), vehicle: saline): 111 % of control

SMILES: NCCCCCCN1CCN(c2cccc(Cl)c2)CC1
- T/C (dose: 50.0 mg/kg/injection, schedule: Q01DX009 (ip), vehicle: saline): 103 % of control and 97 % of control
- T/C (dose: 100.0 mg/kg/injection, schedule: Q01DX009 (ip), vehicle: saline): 114 % of control and 98 % of control
- T/C (dose: 200.0 mg/kg/injection, schedule: Q01DX009 (ip), vehicle: saline): 123 % of control

SMILES: O=S(=O)(OCC(COS(=O)(=O)c1ccccc1)(OS(=O)(=O)c1ccccc1)OS(=O)(=O)c1ccccc1)c1ccccc1
- T/C [2]: 105 % of control
- T/C [3]: 104 % of control
- T/C (dose: 400.0 mg/kg/injection, schedule: Q01DX009 (ip), vehicle: Klucel (hydroxypropylcellulose) (HPC)): 100 % of control

SMILES: CCCCN(CCCC)C(Cl)=NCCC
- T/C [1]: 94 % of control
- T/C [2]: 93 % of control

SMILES: Cc1ccc2c(C)cc(=O)oc2c1
- T/C (dose: 100.0 mg/kg/injection, schedule: Q04DX003 (ip), vehicle: saline): 102 % of control
- T/C (dose: 200.0 mg/kg/injection, schedule: Q04DX003 (ip), vehicle: saline): 105 % of control
- T/C (dose: 400.0 mg/kg/injection, schedule: Q04DX003 (ip), vehicle: saline): 108 % of control

SMILES: COc1cccc2c1C(=O)c1c(O)c3c(c(O)c1C2=O)CC(O)(C(=O)CO)CC3OC1CC(N/C(C)=C/C(C)=O)C(O)C(C)O1 (stereo not drawn)
- T/C (dose: 10.0 mg/kg/injection, schedule: Q04DX003 (ip), vehicle: saline with Tween-80): 160 % of control

SMILES: CN(C)/C=N\c1ncnc2c1c(C#N)cn2C1OC(CO)C(O)C1O (stereo not drawn)
- T/C (dose: 7.5 mg/kg/injection, schedule: Q01DX005 (ip), vehicle: Klucel (hydroxypropylcellulose) (HPC)): 104 % of control and 112 % of control
- T/C (dose: 15.0 mg/kg/injection, schedule: Q01DX005 (ip), vehicle: Klucel (hydroxypropylcellulose) (HPC)): 120 % of control and 121 % of control

SMILES: CCCCCCCCCCCCCCCC(=O)N1CCN(C)CC1
- T/C [5]: 115 % of control

SMILES: N#CN=CN1CCC(Cc2ccccc2)CC1
- T/C [6]: 101 % of control
- T/C [7]: 101 % of control

SMILES: CS(=O)(=O)CC#N
- T/C (dose: 7.5 mg/kg/injection, schedule: Q01DX005 (ip), vehicle: saline): 96 % of control
- T/C (dose: 15.0 mg/kg/injection, schedule: Q01DX005 (ip), vehicle: saline): 100 % of control
- T/C (dose: 30.0 mg/kg/injection, schedule: Q01DX005 (ip), vehicle: saline): 95 % of control

SMILES: OC(CNc1c2ccccc2nc2ccccc12)COc1c2ccccc2nc2ccccc12 (stereo not drawn)
- T/C (dose: 60.0 mg/kg/injection, schedule: Q01DX005 (ip), vehicle: saline with Tween-80): 95 % of control
- T/C (dose: 120.0 mg/kg/injection, schedule: Q01DX005 (ip), vehicle: saline with Tween-80): 92 % of control
- T/C (dose: 240.0 mg/kg/injection, schedule: Q01DX005 (ip), vehicle: saline with Tween-80): 100 % of control

SMILES: Cc1ncc(C(=O)O)n1Cc1ccccc1
- T/C (dose: 60.0 mg/kg/injection, schedule: Q01DX005 (ip), vehicle: Klucel (hydroxypropylcellulose) (HPC)): 94 % of control
- T/C (dose: 120.0 mg/kg/injection, schedule: Q01DX005 (ip), vehicle: Klucel (hydroxypropylcellulose) (HPC)): 93 % of control
- T/C (dose: 240.0 mg/kg/injection, schedule: Q01DX005 (ip), vehicle: Klucel (hydroxypropylcellulose) (HPC)): 93 % of control

SMILES: CN(C(=O)C(=S)c1ccccc1)c1ccccc1
- T/C (dose: 100.0 mg/kg/injection, schedule: Q04DX002 (ip), vehicle: saline): 104 % of control
- T/C (dose: 200.0 mg/kg/injection, schedule: Q04DX002 (ip), vehicle: saline): 119 % of control
- T/C (dose: 400.0 mg/kg/injection, schedule: Q04DX002 (ip), vehicle: saline): 117 % of control
